Values after ≈ are worked out from the molar mass of the structure shown.
Assays:
[1] = tested on: Mycobacterium tuberculosis; test: Antibacterial activity against Mycobacterium tuberculosis incubated for 1 to 2 weeks in 7H9/ADC/Tw medium; type: functional; conditions: time 1-2 weeks
[2] = tested on: Vero; test: Cytotoxicity against African green monkey Vero cells measured after 72 hrs by tetrazolium-based colorimetric MTT assay; type: toxicity, cell-based; conditions: chlorocebus sabaeus
[3] = tested on: Mycobacterium tuberculosis; test: Antibacterial activity against Mycobacterium tuberculosis incubated for 1 to 2 weeks in GastFe medium; type: functional; conditions: time 1-2 weeks
[4] = tested on: Mycobacterium tuberculosis; test: Antibacterial activity against Mycobacterium tuberculosis incubated for 1 to 2 weeks in 7H9/DPPC/casitone/Tx medium; type: functional; conditions: time 1-2 weeks
[5] = Mycobacterium tuberculosis, read-out: MIC99

SMILES: Nc1cccc(F)c1C(=O)O
- MIC99 [1, 5]: 5 µM (≈ 0.776 µg/mL)
- CC50 [2]: 74 µM

SMILES: Nc1cccc(F)c1C(Nc1ccc(F)cc1)C(F)(F)F (stereo not drawn)
- MIC99 [1, 5]: 50 µM (≈ 15.1 µg/mL)
- MIC99 [3, 5]: 50 µM (≈ 15.1 µg/mL)
- MIC99 [4, 5]: 50 µM (≈ 15.1 µg/mL)

SMILES: Nc1cccc(F)c1C(=O)NC1CCCCC1
- MIC99 [1, 5]: > 50 µM
- MIC99 [3, 5]: > 50 µM
- MIC99 [4, 5]: > 50 µM

SMILES: Cc1nnc(-c2c(N)cccc2F)o1
- MIC99 [1, 5]: > 50 µM
- MIC99 [3, 5]: > 50 µM
- MIC99 [4, 5]: > 50 µM

SMILES: Nc1cccc(F)c1C(=O)NNCc1ccccc1
- MIC99 [1, 5]: > 50 µM
- MIC99 [3, 5]: > 50 µM
- MIC99 [4, 5]: 50 µM (≈ 13 µg/mL)

SMILES: COc1ccc(NNC(=O)c2c(N)cccc2F)cc1
- MIC99 [1, 5]: 12.5 µM (≈ 3.44 µg/mL)
- MIC99 [3, 5]: 0.78 µM (≈ 0.215 µg/mL)
- MIC99 [4, 5]: 1.56 µM (≈ 0.429 µg/mL)
- CC50 [2]: 1310 µM

SMILES: Nc1cccc(F)c1C(=O)N1CCCC1
- MIC99 [1, 5]: > 50 µM
- MIC99 [3, 5]: > 50 µM
- MIC99 [4, 5]: > 50 µM

SMILES: Nc1cccc(F)c1C(=O)NNc1ccc(Cl)cc1
- MIC99 [1, 5]: 12.6 µM (≈ 3.51 µg/mL)
- MIC99 [3, 5]: 3.12 µM (≈ 0.874 µg/mL)
- MIC99 [4, 5]: 1.56 µM (≈ 0.436 µg/mL)
- CC50 [2]: 373 µM

SMILES: NC(=O)c1c(N)cccc1F
- MIC99 [1, 5]: > 50 µM
- MIC99 [3, 5]: > 50 µM
- MIC99 [4, 5]: > 50 µM

SMILES: Nc1cccc(F)c1C(=O)NNc1ccccc1
- MIC99 [1]: 12.5 µM (≈ 3.07 µg/mL)
- MIC99 [4, 5]: 1.56 µM (≈ 0.383 µg/mL)
- CC50 [2]: 2030 µM

SMILES: Nc1cccc(F)c1C(=O)NC1CC1
- MIC99 [1, 5]: > 50 µM
- MIC99 [3, 5]: > 50 µM
- MIC99 [4, 5]: > 50 µM

SMILES: Nc1cccc(F)c1C(=O)NNc1cc(Cl)ccc1Cl
- MIC99 [1, 5]: > 50 µM
- MIC99 [3, 5]: 25 µM (≈ 7.85 µg/mL)
- MIC99 [4, 5]: 6.25 µM (≈ 1.96 µg/mL)
- CC50 [2]: > 1800 µM

SMILES: Nc1cccc(F)c1C(N1CCSCC1)C(F)(F)F (stereo not drawn)
- MIC99 [1, 5]: 50 µM (≈ 14.7 µg/mL)
- MIC99 [3, 5]: 50 µM (≈ 14.7 µg/mL)
- MIC99 [4, 5]: 50 µM (≈ 14.7 µg/mL)

SMILES: Nc1cccc(F)c1C(=O)NC1CCC1
- MIC99 [1, 5]: > 50 µM
- MIC99 [3, 5]: > 50 µM
- MIC99 [4, 5]: > 50 µM

SMILES: CC(C)NC(=O)c1c(N)cccc1F
- MIC99 [1, 5]: > 50 µM
- MIC99 [3, 5]: > 50 µM
- MIC99 [4, 5]: > 50 µM

SMILES: Nc1cccc(F)c1C(=O)NNc1ccc(Cl)c(Cl)c1
- MIC99 [1, 5]: 25 µM (≈ 7.85 µg/mL)
- MIC99 [3, 5]: 12.5 µM (≈ 3.93 µg/mL)
- MIC99 [4, 5]: 1.56 µM (≈ 0.49 µg/mL)
- CC50 [2]: > 1800 µM

SMILES: CC(C)(C)OC(=O)NNC(=O)c1c(N)cccc1F
- MIC99 [1, 5]: > 50 µM
- MIC99 [3, 5]: > 50 µM
- MIC99 [4, 5]: > 50 µM

SMILES: Nc1cccc(F)c1C(=O)NNc1ccc(C(F)(F)F)cc1
- MIC99 [1, 5]: 45.5 µM (≈ 14.2 µg/mL)
- MIC99 [3, 5]: 11.4 µM (≈ 3.56 µg/mL)
- MIC99 [4, 5]: 2.84 µM (≈ 0.89 µg/mL)
- CC50 [2]: 1360 µM

SMILES: Nc1cccc(F)c1C(=O)N1CCCCC1
- MIC99 [1, 5]: > 50 µM
- MIC99 [3, 5]: > 50 µM
- MIC99 [4, 5]: > 50 µM

SMILES: Cl.Nc1cccc(F)c1C(=O)NNc1ccc(F)cc1
- MIC99 [3]: 1.4 µM
- MIC99 [4]: 1.4 µM
- CC50 [2]: > 1800 µM

SMILES: Nc1cccc(F)c1C(=O)NNc1cccc(Cl)c1
- MIC99 [1, 5]: 25 µM (≈ 6.99 µg/mL)
- MIC99 [3, 5]: 6.25 µM (≈ 1.75 µg/mL)
- MIC99 [4, 5]: 1.56 µM (≈ 0.436 µg/mL)
- CC50 [2]: > 1800 µM

SMILES: Nc1cccc(F)c1C(=O)NNc1ccccc1Cl
- MIC99 [1, 5]: 25 µM (≈ 6.99 µg/mL)
- MIC99 [3, 5]: 3.12 µM (≈ 0.874 µg/mL)
- MIC99 [4, 5]: 3.12 µM (≈ 0.874 µg/mL)
- CC50 [2]: 792 µM

SMILES: Nc1cccc(F)c1C(=O)NO
- MIC99 [1, 5]: > 50 µM
- MIC99 [3, 5]: > 50 µM
- MIC99 [4, 5]: > 50 µM

SMILES: Nc1cccc(F)c1C(=O)NNc1cc(Cl)cc(Cl)c1
- MIC99 [1, 5]: > 50 µM
- MIC99 [3, 5]: 25 µM (≈ 7.85 µg/mL)
- MIC99 [4, 5]: 6.25 µM (≈ 1.96 µg/mL)

SMILES: Nc1cccc(F)c1C(N1CCOCC1)C(F)(F)F (stereo not drawn)
- MIC99 [1, 5]: 50 µM (≈ 13.9 µg/mL)
- MIC99 [3, 5]: 50 µM (≈ 13.9 µg/mL)
- MIC99 [4, 5]: 50 µM (≈ 13.9 µg/mL)

SMILES: Nc1cccc(F)c1C(=O)NNc1ccc([N+](=O)[O-])cc1[N+](=O)[O-]
- MIC99 [1, 5]: > 50 µM
- MIC99 [3, 5]: > 50 µM
- MIC99 [4, 5]: > 50 µM

SMILES: Nc1cccc(F)c1C(=O)NNC1CCCCC1
- MIC99 [1, 5]: 9.4 µM (≈ 2.36 µg/mL)
- MIC99 [3, 5]: 50 µM (≈ 12.6 µg/mL)
- MIC99 [4, 5]: 9.4 µM (≈ 2.36 µg/mL)
- CC50 [2]: 909 µM

SMILES: Cc1nc(-c2c(N)cccc2F)no1
- MIC99 [1, 5]: > 50 µM
- MIC99 [3, 5]: > 50 µM
- MIC99 [4, 5]: > 50 µM

SMILES: CONC(=O)c1c(N)cccc1F
- MIC99 [1, 5]: > 50 µM
- MIC99 [3, 5]: > 50 µM
- MIC99 [4, 5]: > 50 µM

SMILES: Nc1cccc(F)c1C(=O)Nc1ccc(F)cc1
- MIC99 [1, 5]: > 50 µM
- MIC99 [3, 5]: > 50 µM
- MIC99 [4, 5]: > 50 µM

SMILES: Nc1cccc(F)c1C(=O)NNc1ccc(F)cc1
- MIC99 [1]: 9.4 µM (≈ 2.47 µg/mL)
- MIC99 [3, 5]: 2.3 µM (≈ 0.605 µg/mL)
- MIC99 [4, 5]: 1.56 µM (≈ 0.411 µg/mL)
- CC50 [2]: 1360 µM

SMILES: Nc1cccc(F)c1C(=O)NNc1cccc(Cl)c1Cl
- MIC99 [1, 5]: 50 µM (≈ 15.7 µg/mL)
- MIC99 [3, 5]: 12.5 µM (≈ 3.93 µg/mL)
- MIC99 [4, 5]: 6.25 µM (≈ 1.96 µg/mL)
- CC50 [2]: > 1800 µM

SMILES: Nc1cccc(F)c1C(=O)NNc1cccc(F)c1
- MIC99 [1, 5]: 12.5 µM (≈ 3.29 µg/mL)
- MIC99 [3, 5]: 6.25 µM (≈ 1.65 µg/mL)
- MIC99 [4, 5]: 1.56 µM (≈ 0.411 µg/mL)
- CC50 [2]: 1360 µM

SMILES: Nc1cccc(F)c1C(=O)NNc1ccccc1[N+](=O)[O-]
- MIC99 [1, 5]: > 50 µM
- MIC99 [3, 5]: > 50 µM
- MIC99 [4, 5]: 50 µM (≈ 14.5 µg/mL)

SMILES: Nc1cccc(F)c1C(=O)N1CCOCC1
- MIC99 [1, 5]: > 50 µM
- MIC99 [3, 5]: > 50 µM
- MIC99 [4, 5]: > 50 µM

SMILES: Cl.Nc1cccc(F)c1C(=O)NNc1ccccc1
- MIC99 [3]: 2.3 µM
- MIC99 [4]: 1.3 µM
- CC50 [2]: > 1800 µM

SMILES: Nc1cccc(F)c1C(=O)NNc1c(Cl)cc(Cl)cc1Cl
- MIC99 [1, 5]: 5 µM (≈ 1.74 µg/mL)
- MIC99 [3, 5]: 1.25 µM (≈ 0.436 µg/mL)
- MIC99 [4, 5]: 0.625 µM (≈ 0.218 µg/mL)
- CC50 [2]: > 1800 µM

SMILES: NNC(=O)c1c(N)cccc1F
- MIC99 [1, 5]: > 50 µM
- MIC99 [3, 5]: > 50 µM
- MIC99 [4, 5]: > 50 µM

SMILES: Nc1cccc(F)c1-c1nnn[nH]1
- MIC99 [1, 5]: > 50 µM
- MIC99 [3, 5]: > 50 µM
- MIC99 [4, 5]: > 50 µM

SMILES: Nc1cccc(F)c1C(=O)NCCO
- MIC99 [1, 5]: > 50 µM
- MIC99 [3, 5]: > 50 µM
- MIC99 [4, 5]: > 50 µM

SMILES: CN1CCN(C(=O)c2c(N)cccc2F)CC1
- MIC99 [1, 5]: > 50 µM
- MIC99 [3, 5]: > 50 µM
- MIC99 [4, 5]: > 50 µM

SMILES: Nc1cccc(F)c1C(=O)NNc1cccc([N+](=O)[O-])c1
- MIC99 [1, 5]: > 50 µM
- MIC99 [3, 5]: 25 µM (≈ 7.26 µg/mL)
- MIC99 [4, 5]: 6.25 µM (≈ 1.81 µg/mL)
- CC50 [2]: 1300 µM

SMILES: Nc1cccc(F)c1C(=O)NNc1ccc(Cl)cc1Cl
- MIC99 [1, 5]: 50 µM (≈ 15.7 µg/mL)
- MIC99 [3, 5]: 6.25 µM (≈ 1.96 µg/mL)
- MIC99 [4, 5]: 3.12 µM (≈ 0.982 µg/mL)
- CC50 [2]: 1040 µM

SMILES: NNC(=O)c1ccncc1 [ISONIAZID]
- MIC99 [4, 5]: 0.1 µM (≈ 0.0137 µg/mL)

Source: ChEMBL document CHEMBL5214915 (Eur J Med Chem, 2021)
